Measurements as given in patent US20210115104A1, “AMYLIN ANALOGUES” (Zealand Pharma A/S, priority 2015, published 2021).
*1 amine or outer side, *2 acyl side, *3 side chain or, on linkers, in order; H or OH if unused. Where a SMILES comes first, the peptide text is derived from it. Bridges are numbered along the chain shown (N, C = ends). [ ]: non-standard residue; d: D form. The star is where a group is joined. C20 diacid = O=C(O)CCCCCCCCCCCCCCCCCCC(=O)*; γGlu = O=C(O)[C@H](CCC(=O)[*:2])N[*:1]; Hyp = O=C(O)[C@@H]1C[C@@H](O)CN1; NMeI = CC[C@H](C)[C@H](NC)C(=O)O; Orn = NCCC[C@H](N)C(=O)O; Sar = CNCC(=O)O

Key:
[1] = Assessment of physical stability (Thioflavin T fibrillation); type: physicochemical; set-up: key: FND = fibrillation not detected; FD = fibrillation detected; details: 1 mg/ml, 40° C., ThT; for Fibrillation pH 4.0 (Ac): 50 mM acetate buffer pH 4.0, 96 hours; for Fibrillation pH 7.0 (His): 50 mM histidine buffer pH 7.0, 96 hours; for Fibrillation pH 7.0 (Phos.): 50 mM phosphate buffer pH 7.0, 96 hours
How it was run: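 1 mg/ml peptide with 40 μM ThT in 50 mM phosphate pH 7.0, 50 mM histidine pH 7.0 or 50 mM acetate pH 4.0, in triplicate. Fluorescence read every 10 min after 300 s agitation over 96 h at 40 °C. Lag-time (h) is the intersection of linear fits to stable and growth phases.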

[2] = target: T1, human calcitonin receptor (hCTR2) (Homo sapiens, UniProt P30988); test: hCTR2 cAMP assay (AlphaScreen) in COS7 cells; type: cell-based; details: cAMP induction, COS7 cells expressing hCTR2; Table 1; read-out: hCTR2 EC50
T1 construct: expressed in transfected cells
T1 sequence (P30988 25-474): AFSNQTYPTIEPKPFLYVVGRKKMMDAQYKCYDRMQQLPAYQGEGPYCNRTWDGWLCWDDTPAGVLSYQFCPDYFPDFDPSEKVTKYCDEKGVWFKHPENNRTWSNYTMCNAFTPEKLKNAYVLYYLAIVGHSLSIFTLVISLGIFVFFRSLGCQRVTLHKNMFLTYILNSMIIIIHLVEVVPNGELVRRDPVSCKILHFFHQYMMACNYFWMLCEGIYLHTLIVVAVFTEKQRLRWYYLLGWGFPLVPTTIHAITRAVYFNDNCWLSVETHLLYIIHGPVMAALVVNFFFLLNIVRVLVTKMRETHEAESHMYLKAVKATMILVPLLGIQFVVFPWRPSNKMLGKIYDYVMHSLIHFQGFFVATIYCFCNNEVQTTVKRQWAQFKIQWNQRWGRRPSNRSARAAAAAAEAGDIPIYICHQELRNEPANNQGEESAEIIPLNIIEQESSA
How it was run: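 Stable hCTR2 clone in RAMP-naïve COS7 cells stimulated 15 min at 37 °C with increasing peptide concentrations in Tyrode buffer pH 7.4 containing IBMX and 0.1% casein. cAMP in lysates measured by AlphaScreen; EC50 from 4-parameter logistic fit.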

[3] = target: T2, human amylin receptor 3 (hAMYR3), hCTR2 co-expressed with hRAMP3 (Homo sapiens, UniProt O60896+P30988); test: hAMYR3 cAMP assay (AlphaScreen) in COS7 cells; type: cell-based; details: cAMP induction, COS7 cells expressing hAMYR3; Table 1; read-out: hAMYR3 EC50
T2 construct: expressed in transfected cells
T2 sequence (P30988 25-474): T1 sequence (P30988 25-474)
T2 sequence (O60896 24-148 partner): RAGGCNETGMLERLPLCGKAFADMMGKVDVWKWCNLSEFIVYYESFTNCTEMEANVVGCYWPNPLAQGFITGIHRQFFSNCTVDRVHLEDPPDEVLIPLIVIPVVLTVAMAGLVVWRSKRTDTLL
How it was run: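 Stable COS7 clone co-expressing hCTR2 and hRAMP3 was exposed to increasing peptide concentrations in Tyrode buffer (pH 7.4) with 100 µM IBMX and 0.1% casein for 15 min at 37 °C. Lysate cAMP was measured by AlphaScreen; EC50 came from 4-parameter logistic fitting.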

[4] = Assessment of chemical stability (RP-HPLC normalized purity); type: physicochemical; details: 7 days, 40° C., Table 1; for Normalized purity after 7 days, 40° C., pH 4: pH 4, 0.2 mg/ml; for Normalized purity after 7 days, 40° C., pH 6: pH 6, 0.2 mg/ml; for Normalized purity after 7 days, 40° C., pH 7.5: pH 7.5, 0.2 mg/ml; for Normalized purity after 7 days, 40° C., pH 9: pH 9, 0.2 mg/ml
How it was run: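 Peptides at 0.2 mg/ml in water adjusted to pH 4, 6, 7.5 or 9, incubated at 40° C for 7 days. Main-peak area-% by RP-HPLC (C8 ammonium formate or C18 TFA gradient, UV 220 nm), normalized to T=0 as 100.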

Structure (SMILES) | Fibrillation pH 4.0 (Ac) [1] | Fibrillation pH 7.0 (His) [1] | Fibrillation pH 7.0 (Phos.) [1] | EC50 [2] [nM] | EC50 [3] [nM] | Normalized purity after 7 days, 40° C., pH 4 [4] | Normalized purity after 7 days, 40° C., pH 6 [4] | Normalized purity after 7 days, 40° C., pH 7.5 [4] | Normalized purity after 7 days, 40° C., pH 9 [4]
CC[C@H](C)[C@@H](C(=O)N[C@@H](CC(C)C)C(=O)N[C@@H](CO)C(=O)N[C@@H](CO)C(=O)N[C@H](C(=O)N[C@@H](CCC(=O)O)C(=O)N[C@H](C(=O)NCC(=O)N[C@@H](CO)C(=O)N[C@@H](CC(N)=O)C(=O)N[C@H](C(=O)N1C[C@H](O)C[C@H]1C(N)=O)[C@@H](C)O)C(C)C)[C@@H](C)O)N(C)C(=O)[C@H](C)NC(=O)CN(C)C(=O)[C@H](Cc1ccccc1)NC(=O)[C@H](CO)NC(=O)[C@H](CO)NC(=O)[C@H](CCCNC(=N)N)NC(=O)[C@H](CCCCN)NC(=O)[C@H](CC(C)C)NC(=O)[C@H](Cc1ccccc1)NC(=O)[C@H](Cc1c[nH]cn1)NC(=O)[C@H](C)NC(=O)[C@H](CC(C)C)NC(=O)[C@H](CCCNC(=N)N)NC(=O)[C@H](CCC(=O)O)NC(=O)[C@@H](NC(=O)[C@H](C)NC(=O)[C@@H]1CSSC[C@H](NC(=O)[C@H](CCCNC(=N)N)NC(=O)CC[C@H](NC(=O)CCCCCCCCCCCCCCCCCCC(=O)O)C(=O)O)C(=O)NCC(=O)N[C@@H]([C@@H](C)O)C(=O)N[C@@H](C)C(=O)N[C@@H]([C@@H](C)O)C(=O)N1)[C@@H](C)O [Compound 19, [19CD]-isoGlu-R-C( )-GTAT-C( )-ATERLAHFLKRSSF-Gly(Me)-A-Ile(Me)-LSSTEVGSNT-Hyp-NH2] ({C20 diacid-γGlu}-RCGTATCATERLAHFLKRSSF[Sar]A[NMeI]LSSTEVGSNT[Hyp]-NH2; disulfide 2-7) | FND | FND | FND | 0.16 | 0.28 | A (A = >90%) | A (A = >90%) | A (A = >90%) | C (C = <70%)
CC[C@H](C)[C@@H](C(=O)N[C@@H](CC(C)C)C(=O)N[C@@H](CO)C(=O)N[C@@H](CO)C(=O)N[C@H](C(=O)N[C@@H](CCC(=O)O)C(=O)N[C@H](C(=O)NCC(=O)N[C@@H](CO)C(=O)N[C@@H](Cc1ccccc1)C(=O)N[C@H](C(=O)N1C[C@H](O)C[C@H]1C(N)=O)[C@@H](C)O)C(C)C)[C@@H](C)O)N(C)C(=O)[C@H](C)NC(=O)CN(C)C(=O)[C@H](Cc1ccccc1)NC(=O)[C@H](CO)NC(=O)[C@H](CO)NC(=O)[C@H](CCCNC(=N)N)NC(=O)[C@H](CCC(N)=O)NC(=O)[C@H](CC(C)C)NC(=O)[C@H](Cc1ccccc1)NC(=O)[C@H](Cc1c[nH]cn1)NC(=O)[C@H](C)NC(=O)[C@H](CC(C)C)NC(=O)[C@H](CCCNC(=N)N)NC(=O)[C@H](CCC(=O)O)NC(=O)[C@@H](NC(=O)[C@H](C)NC(=O)[C@@H]1CSSC[C@H](NC(=O)[C@H](CCCNC(=N)N)NC(=O)CC[C@H](NC(=O)CCCCCCCCCCCCCCCCCCC(=O)O)C(=O)O)C(=O)NCC(=O)N[C@@H]([C@@H](C)O)C(=O)N[C@@H](C)C(=O)N[C@@H]([C@@H](C)O)C(=O)N1)[C@@H](C)O [Compound 32, [19CD]-isoGlu-R-C( )-GTAT-C( )-ATERLAHFLQRSSF-Gly(Me)-A-Ile(Me)-LSSTEVGSFT-Hyp-NH2] ({C20 diacid-γGlu}-RCGTATCATERLAHFLQRSSF[Sar]A[NMeI]LSSTEVGSFT[Hyp]-NH2; disulfide 2-7) | FND | FD | FD | 0.17 | 0.23 |  |  |  | 
CC[C@H](C)[C@@H](C(=O)N[C@@H](CC(C)C)C(=O)N[C@@H](CO)C(=O)N[C@@H](CO)C(=O)N[C@H](C(=O)N[C@@H](CCC(=O)O)C(=O)N[C@H](C(=O)NCC(=O)N[C@@H](CO)C(=O)N[C@@H](CO)C(=O)N[C@H](C(=O)N1CCC[C@H]1C(N)=O)[C@@H](C)O)C(C)C)[C@@H](C)O)N(C)C(=O)[C@H](C)NC(=O)CN(C)C(=O)[C@H](Cc1ccccc1)NC(=O)[C@H](CO)NC(=O)[C@H](CO)NC(=O)[C@H](CCCNC(=N)N)NC(=O)[C@H](CC(N)=O)NC(=O)[C@H](CC(C)C)NC(=O)[C@H](Cc1ccccc1)NC(=O)[C@H](Cc1c[nH]cn1)NC(=O)[C@H](C)NC(=O)[C@H](CC(C)C)NC(=O)[C@H](CCCNC(=N)N)NC(=O)[C@H](CCC(=O)O)NC(=O)[C@@H](NC(=O)[C@H](C)NC(=O)[C@@H]1CSSC[C@H](NC(=O)[C@H](CCCNC(=N)N)NC(=O)CC[C@H](NC(=O)CCCCCCCCCCCCCCCCCCC(=O)O)C(=O)O)C(=O)NCC(=O)N[C@@H]([C@@H](C)O)C(=O)N[C@@H](C)C(=O)N[C@@H]([C@@H](C)O)C(=O)N1)[C@@H](C)O [Compound 35, [19CD]-isoGlu-R-C( )-GTAT-C( )-ATERLAHFLNRSSF-Gly(Me)-A-Ile(Me)-LSSTEVGSSTP-NH2] ({C20 diacid-γGlu}-RCGTATCATERLAHFLNRSSF[Sar]A[NMeI]LSSTEVGSSTP-NH2; disulfide 2-7) | FND | FND | FND | 0.05 | 0.11 | A (A = >90%) | A (A = >90%) | B (B = 70-90%) | B (B = 70-90%)
CC[C@H](C)[C@@H](C(=O)N[C@@H](CC(C)C)C(=O)N[C@@H](CO)C(=O)N[C@@H](CO)C(=O)N[C@H](C(=O)N[C@@H](CCC(=O)O)C(=O)N[C@H](C(=O)NCC(=O)N[C@@H](CO)C(=O)N[C@@H](CCCN)C(=O)N[C@H](C(=O)N1C[C@H](O)C[C@H]1C(N)=O)[C@@H](C)O)C(C)C)[C@@H](C)O)N(C)C(=O)[C@H](C)NC(=O)CN(C)C(=O)[C@H](Cc1ccccc1)NC(=O)[C@H](CO)NC(=O)[C@H](CO)NC(=O)[C@H](CCCNC(=N)N)NC(=O)[C@H](CCC(N)=O)NC(=O)[C@H](CC(C)C)NC(=O)[C@H](Cc1ccccc1)NC(=O)[C@H](Cc1c[nH]cn1)NC(=O)[C@H](C)NC(=O)[C@H](CC(C)C)NC(=O)[C@H](CCCNC(=N)N)NC(=O)[C@H](CCC(=O)O)NC(=O)[C@@H](NC(=O)[C@H](C)NC(=O)[C@@H]1CSSC[C@H](NC(=O)[C@H](CCCNC(=N)N)NC(=O)CC[C@H](NC(=O)CCCCCCCCCCCCCCCCCCC(=O)O)C(=O)O)C(=O)NCC(=O)N[C@@H]([C@@H](C)O)C(=O)N[C@@H](C)C(=O)N[C@@H]([C@@H](C)O)C(=O)N1)[C@@H](C)O [Compound 51, [19CD]-isoGlu-R-C( )-GTAT-C( )-ATERLAHFLQRSSF-Gly(Me)-A-Ile(Me)-LSSTEVGS-Orn-T-Hyp-NH2] ({C20 diacid-γGlu}-RCGTATCATERLAHFLQRSSF[Sar]A[NMeI]LSSTEVGS[Orn]T[Hyp]-NH2; disulfide 2-7) | FND | FND | FND | 0.08 | 0.11 | A (A = >90%) | B (B = 70-90%) | B (B = 70-90%) | B (B = 70-90%)
